Assay results published in US11873298B2, “Compounds and uses thereof” (JANSSEN PHARMACEUTICA NV, priority 2017, dated 2024).
Several values for one entry are separate records, joined by “and”; a condition that tells them apart may be missing. Equal entries are not always repeated.

What was measured:
Type in all cases: cell-based
SCD5 = target: T1, SCD5 (Homo sapiens, UniProt Q86SK9); experiment: Growth inhibition of humanized yeast strain expressing SCD5 as sole desaturase; conditions: humanized yeast strain expressing SCD5
T1 construct: host or cells: S. cerevisiae ole1Δ strain (W303 pdr1Δ pdr3Δ background), plasmid pRS316 with TDH3 promoter and CYC1 terminator
T1 sequence (Q86SK9 1-330): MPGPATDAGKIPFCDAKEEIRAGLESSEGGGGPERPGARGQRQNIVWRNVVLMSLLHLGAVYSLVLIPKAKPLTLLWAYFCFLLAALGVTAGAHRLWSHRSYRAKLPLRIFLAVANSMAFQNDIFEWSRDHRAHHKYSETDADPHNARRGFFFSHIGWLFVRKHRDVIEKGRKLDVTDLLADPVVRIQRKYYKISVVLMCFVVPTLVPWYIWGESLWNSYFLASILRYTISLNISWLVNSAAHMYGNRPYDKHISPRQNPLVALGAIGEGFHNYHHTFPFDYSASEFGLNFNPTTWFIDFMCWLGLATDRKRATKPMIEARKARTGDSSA
Procedure, shortened: (§1)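 OD600 growth read-out. ole1Δ yeast, pdr1Δ pdr3Δ, with Ole1/SCD1/SCD5 on a plasmid; SX-Ura media throughout; 2× cell density 0.02 in CSM-Galactose; DMSO compound dilutions; humidified 30° C.; Ole1 stopped at 24 h, SCD1/SCD5 at 40 h.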

SCD1 = target: T2, SCD1 (Homo sapiens, UniProt O00767); experiment: Growth inhibition of humanized yeast strain expressing SCD1 as sole desaturase; conditions: humanized yeast strain expressing SCD1
T2 construct: host or cells: S. cerevisiae ole1Δ strain (W303 pdr1Δ pdr3Δ background), plasmid pRS316 with TDH3 promoter and CYC1 terminator
T2 sequence (O00767 1-359): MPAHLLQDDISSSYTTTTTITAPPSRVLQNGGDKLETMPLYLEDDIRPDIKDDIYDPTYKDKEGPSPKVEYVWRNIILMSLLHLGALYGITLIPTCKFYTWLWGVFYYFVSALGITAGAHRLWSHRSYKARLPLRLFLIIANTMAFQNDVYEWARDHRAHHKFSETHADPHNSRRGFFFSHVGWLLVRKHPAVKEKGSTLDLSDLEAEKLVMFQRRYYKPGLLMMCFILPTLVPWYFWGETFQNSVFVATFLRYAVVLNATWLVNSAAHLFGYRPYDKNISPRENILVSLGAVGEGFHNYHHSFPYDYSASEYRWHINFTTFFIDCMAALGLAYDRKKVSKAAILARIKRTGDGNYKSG
Procedure, shortened: as §1

Ole1 = target: T3, Ole1 (Saccharomyces cerevisiae, UniProt P21147); experiment: Growth inhibition of yeast strain expressing Ole1 as sole desaturase; conditions: yeast strain expressing Ole1 as sole desaturase
T3 construct: expressed in transfected cells; host or cells: S. cerevisiae ole1Δ strain (W303 pdr1Δ pdr3Δ background), plasmid pRS316 with TDH3 promoter and CYC1 terminator
T3 sequence (P21147 1-510): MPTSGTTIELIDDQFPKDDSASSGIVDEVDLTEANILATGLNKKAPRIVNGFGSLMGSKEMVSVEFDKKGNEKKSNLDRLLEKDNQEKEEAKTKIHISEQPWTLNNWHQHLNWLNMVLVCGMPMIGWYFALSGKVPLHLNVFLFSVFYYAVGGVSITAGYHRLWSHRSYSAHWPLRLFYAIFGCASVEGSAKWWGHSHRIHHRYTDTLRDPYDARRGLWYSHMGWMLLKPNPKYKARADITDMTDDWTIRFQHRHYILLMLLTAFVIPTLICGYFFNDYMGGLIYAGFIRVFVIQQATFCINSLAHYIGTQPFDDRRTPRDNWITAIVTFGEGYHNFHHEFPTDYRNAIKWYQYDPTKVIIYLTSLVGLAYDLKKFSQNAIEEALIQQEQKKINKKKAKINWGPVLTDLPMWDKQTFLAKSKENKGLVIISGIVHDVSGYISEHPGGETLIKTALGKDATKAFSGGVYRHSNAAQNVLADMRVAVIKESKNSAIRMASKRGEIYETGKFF
Procedure, shortened: as §1

SMILES	IC50 (SCD5) [µM]	SCD5 % Max Inhibition (SCD5)	SCD1 % Max Inhibition (SCD1)	IC50 (Ole1) [µM]	OLE1 % Max Inhibition (Ole1)	IC50 (SCD1) [µM]
COc1ccc(-c2noc(CCNC(=O)COc3cc(O)c4c(c3)OC(C)(C)CC4=O)n2)cc1OC [Compound 486]	> 45	72.76%	76.95%	> 45	103.51%	
CC(C)(CO)n1cc2ccc(-c3noc(C4CCN(C(=O)C5CC(=O)N(c6ccccc6)C5)CC4)n3)cc2n1 (stereo not shown) [Compound 201]	32.9	65.14%	79.67%	> 45	85.29%	> 45
CCN1C(=O)COc2ccc(-c3nc(C4(c5ccccc5)CC4)no3)cc21 [Compound 159]	13.9	10.25%	70.17%	> 45	46.92%	38.9
Cc1nn(C)c2cc(-c3noc(N4CCN(C(=O)CN5Cc6ccccc6C5=O)CC4)n3)ccc12 [Compound 219]	> 45	89.83%	95.22%	> 45	3.50%	> 45
CC(C)n1ncc2ccc(-c3noc(C4CCN(C(=O)C5CC(=O)N(c6ccccc6)C5)CC4)n3)cc21 (stereo not shown) [Compound 174]	> 45	10.95%	79.07%	> 45	89.17%	> 45
CCOc1cnc(-c2noc(C3CCN(C(=O)CNC(=O)c4ccccc4)CC3)n2)nc1OC [Compound 166]	> 45	68.87%	90.07%	> 45	105.73%	> 45
CC(C)n1cc2ccc(-c3noc(C4CCN(C(=O)CNC(=O)c5ccccc5)CC4)n3)cc2n1 [Compound 181]	> 45	81.40%	88.32%	> 45	20.70%	> 45
Cc1nn(C)c2cc(-c3noc(C4CCN(C(=O)c5cccc(F)c5)CC4)n3)ccc12 [Compound 284]	> 45	6.80%	4.81%	> 45	12.40%	
CCc1c2ccc(-c3noc(C4CCN(C(=O)CNC(=O)c5ccccc5)CC4)n3)cc2nn1C [Compound 321]	> 45	74.1%	71.6%	> 45	14.0%	
Cc1nn(C)c2cc(-c3noc(C4CCN(C(=O)[C@H](NC(=O)c5ccccc5)C5CC5)CC4)n3)ccc12 [Compound 191]	> 45	6.72%	81.79%	> 45	89.31%	> 45
CC(C)(CO)n1ncc2ccc(-c3noc(C4CCN(C(=O)CNC(=O)c5ccccc5)CC4)n3)cc21 [Compound 189]	> 45	68.58%	88.10%	> 45	98.14%	> 45
Cc1nn(C)c2cc(-c3noc(C4CCN(C(=O)CNC(=O)c5ccc(Cl)cc5)CC4)n3)ccc12 [Compound 269]	> 45	8.38% and 5.30%	38.78% and 25.11%	> 45	6.62% and 4.57%	
CCOC(=O)C(C)(C)n1ncc2ccc(-c3noc(C4CCN(C(=O)C5CC(=O)N(c6ccccc6)C5)CC4)n3)cc21 (stereo not shown) [Compound 196]	> 45	75.88%	86.58%	> 45	93.87%	> 45
CCN(Cc1nc(-c2ccc3c(c2)N(CC)C(=O)CO3)no1)C(=O)Cc1cccc2ccccc12 [Compound 494]	> 45	73.76%	79.67%	> 45	92.28%	
Cc1nn(C)c2cc(-c3noc(C4CCN(C(=O)[C@H]5CC(=O)N(c6ccccc6)C5)C(C)C4)n3)ccc12 (stereo partly shown) [Compound 240]	> 45	12.95%	66.85%	> 45	4.30%	> 45
O=C(C1CCN(c2nc(-c3ccccc3)no2)CC1)N1CCOCC1 [Compound 5]	24.5			> 45		> 45
Cc1nn(C)c2cc(-c3noc(C4CCN(C(=O)C5CC(=O)N(c6ccc(F)cn6)C5)CC4)n3)ccc12 (stereo not shown) [Compound 275]	> 45	78.05%	76.51%	> 45	11.24%	> 45
Cc1nn(C)c2cc(-c3noc(N4CCN(C(=O)c5cccc(F)c5)CC4)n3)ccc12 [Compound 270]	> 45	12.30%	82.42%	41.8	63.00%	
CC(C)(CO)n1cc2ccc(-c3noc(C4CCN(C(=O)CNC(=O)c5ccccc5)CC4)n3)cc2n1 [Compound 202]	> 45	74.20%	74.09%	> 45	94.93%	> 45
CCN1C(=O)CC(C)c2ccc(-c3noc(C4CCN(C(=O)CNC(=O)c5ccccc5)CC4)n3)cc21 (stereo not shown) [Compound 298]	> 45	21.3%	92.3%	> 45	6.6%	> 45
Cc1nn(C)c2cc(-c3noc(C4CCN(C(=O)CC(C)(C)C)CC4)n3)ccc12 [Compound 263]	> 45	7.20%	18.81%	> 45	8.71%	
Cc1nn(C)c2cc(-c3noc(C4CCN(C(=O)c5ccccc5Cl)CC4)n3)ccc12 [Compound 288]	> 45	7.52%	8.71%	> 45	7.14%	
COc1ccc(-c2noc(C3CCNCC3)n2)cc1OC [Compound 488]	> 45	72.82%	75.87%	> 45	90.53%	
CCNCc1nc(-c2ccc3c(c2)N(CC)C(=O)CO3)no1 [Compound 493]	30.2	60.28%	68.84%	> 45	91.16%	
CC(C)n1ncc2cc(-c3noc(C4CCN(C(=O)CNC(=O)c5ccccc5)CC4)n3)ccc21 [Compound 228]	> 45	2.72%	51.80%	> 45	21.30%	
CC(C)c1cccc(C(=O)N2CCC(c3nc(-c4ccc5cnn(C)c5c4)no3)CC2)c1 [Compound 205]	> 45	1.01%	31.70%	> 45	94.02%	> 45
Cc1cc(N2CC(C(=O)N3CCC(c4nc(-c5ccc6c(C)nn(C)c6c5)no4)CC3)CC2=O)ccn1 (stereo not shown) [Compound 183]	> 45	84.88%	101.67%	> 45	101.71%	> 45
